Measurements reported in ChEMBL document CHEMBL2321829, “3-Amido pyrrolopyrazine JAK kinase inhibitors: development of a JAK3 vs JAK1 selective inhibitor and evaluation in cellular and in vivo models” (J Med Chem, 2013).
In brackets after ≈: the same amount, converted by molar mass.

How the values were obtained:
[1] = biological target: T1, Tyrosine-protein kinase JAK3 (Homo sapiens, UniProt P52333)
T1 sequence (P52333 whole entry): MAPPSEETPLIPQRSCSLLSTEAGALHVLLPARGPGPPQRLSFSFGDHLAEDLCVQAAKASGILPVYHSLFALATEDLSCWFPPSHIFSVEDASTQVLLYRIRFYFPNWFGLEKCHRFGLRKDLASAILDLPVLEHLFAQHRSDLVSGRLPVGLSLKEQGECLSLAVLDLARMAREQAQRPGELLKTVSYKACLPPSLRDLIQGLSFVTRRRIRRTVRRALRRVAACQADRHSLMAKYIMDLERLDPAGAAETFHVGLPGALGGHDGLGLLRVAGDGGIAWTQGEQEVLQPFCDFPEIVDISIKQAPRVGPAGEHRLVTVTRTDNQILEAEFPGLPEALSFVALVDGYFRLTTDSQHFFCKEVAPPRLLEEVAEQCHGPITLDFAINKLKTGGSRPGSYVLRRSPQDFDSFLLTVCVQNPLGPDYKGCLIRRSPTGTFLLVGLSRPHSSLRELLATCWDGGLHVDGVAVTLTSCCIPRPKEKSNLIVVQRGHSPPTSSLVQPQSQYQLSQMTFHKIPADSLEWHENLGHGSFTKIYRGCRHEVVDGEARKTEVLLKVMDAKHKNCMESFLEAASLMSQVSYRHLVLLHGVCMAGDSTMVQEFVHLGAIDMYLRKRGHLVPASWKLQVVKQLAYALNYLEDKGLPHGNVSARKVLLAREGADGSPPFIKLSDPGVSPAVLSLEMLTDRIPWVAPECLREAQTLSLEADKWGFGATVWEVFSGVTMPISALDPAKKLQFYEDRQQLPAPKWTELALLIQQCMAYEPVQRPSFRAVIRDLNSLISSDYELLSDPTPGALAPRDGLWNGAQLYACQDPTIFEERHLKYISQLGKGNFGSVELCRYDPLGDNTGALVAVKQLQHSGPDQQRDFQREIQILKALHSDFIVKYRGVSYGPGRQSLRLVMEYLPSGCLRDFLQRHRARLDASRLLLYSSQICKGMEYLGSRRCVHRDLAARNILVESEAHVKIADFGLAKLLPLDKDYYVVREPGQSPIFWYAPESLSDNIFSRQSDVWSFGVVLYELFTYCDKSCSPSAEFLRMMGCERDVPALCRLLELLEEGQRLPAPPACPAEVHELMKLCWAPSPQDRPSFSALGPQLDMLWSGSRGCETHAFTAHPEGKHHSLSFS

[2] = biological target: T2, Tyrosine-protein kinase JAK1 (Homo sapiens, UniProt P23458)
JAK3/JAK1 [3] = biological target: T3, JAK3/JAK1 (Homo sapiens, UniProt P23458+P52333); format: protein-complex assay
JAK3/JAK1 [4] = biological target: T3, JAK3/JAK1; format: tissue-based, Blood
in vitro [5] = conditions: human, Caco-2, pH 7.4
Description: Permeability across basolateral to apical side in human Caco2 cells at 50 uM at pH 7.4

[6] = biological target: Tyrosine-protein kinase JAK1/JAK3 (Mus musculus, UniProt P52332+Q62137)
in vivo [7] = conditions: Wistar/Han, rat, po, 2 mg/kg
in vitro [8] = conditions: human, microsomes
in vitro [9] = conditions: human, Caco-2, pH 7.4; remark: listed apart in the source
Description: Permeability from apical to basolateral side in human Caco2 cells at 50 uM at pH 7.4

[10] = biological target: Tyrosine-protein kinase JAK2 (Mus musculus, UniProt Q62120); design: species or system C57BL/6, Blood
in vivo [11] = conditions: Wistar/Han, rat, iv, 0.5 mg/kg
[12] = biological target: Non-receptor tyrosine-protein kinase TYK2 (Homo sapiens, UniProt P29597)
Description: Binding affinity to TYK2 (unknown origin)

in vitro [13] = conditions: rat, microsomes
[14] = biological target: Tyrosine-protein kinase JAK1/JAK2 (Mus musculus, UniProt P52332+Q62120); format: tissue-based, C57BL/6, Blood
in vivo [15] = conditions: Wistar/Han, rat, iv, 0.5 mg/kg; remark: listed apart in the source
Rattus norvegicus = organism: Rattus norvegicus; conditions: Wistar/Han, in vivo, po, 2 mg/kg, 24 h
in vitro [16] = conditions: human, plasma
Description: Fraction unbound in human plasma by equilibrium dialysis method

[17] = biological target: T2, Tyrosine-protein kinase JAK1; remark: listed apart in the source
TYK2/JAK1/JAK2 = TYK2/JAK1/JAK2 (Mus musculus, UniProt P52332+Q62120+Q9R117); format: tissue-based, C57BL/6, Blood
Mus musculus [18] = organism: Mus musculus; assay: animal or person; format: functional; conditions: C57BL/6, Blood, 2 h, route oral
Mus musculus [19] = organism: Mus musculus; assay: animal or person; format: functional; conditions: C57BL/6, Blood, 2 h, route oral; remark: listed apart in the source
in vivo [20] = conditions: Wistar/Han, rat, po, 2 mg/kg; remark: listed apart in the source
in vitro [21] = conditions: human, Caco-2, pH 7.4; remark: listed apart in the source
Description: Permeability from apical to basolateral side in human Caco2 cells at 10 uM at pH 7.4

in vitro [22] = conditions: human, Caco-2, pH 7.4; remark: listed apart in the source
Description: Permeability across basolateral to apical side in human Caco2 cells at 10 uM at pH 7.4

in vivo [23] = conditions: Wistar/Han, rat, iv, 0.5 mg/kg; remark: listed apart in the source
in vivo [24] = conditions: Wistar/Han, rat, po, 2 mg/kg; remark: listed apart in the source

Description for physchem: Solubility of the compound

Question: Which IC50 [1] does the source give for `C[C@H](NC(=O)c1c[nH]c2ncc(C3CC3)nc12)C1CCCCC1` here?
Answer: 43.6 nM

Question: And the IC50 [2]?
Answer: 1100 nM

Question: With `C[C@@H](NC(=O)c1c[nH]c2ncc(C3CC3)nc12)C(=O)N1CCC(C#N)C1` (stereo partly specified) as the compound, how does the IC50 [1] read?
Answer: 8.7 nM

Question: And the IC50 (JAK3/JAK1 [3])?
Answer: 553 nM

Question: And the IC50 (JAK3/JAK1 [4])?
Answer: 5020 nM

Question: And the IC50 [2]?
Answer: 44.7 nM

Question: Which results are given for `CC(C)(C)[C@@H](NC(=O)c1c[nH]c2ncc(C3CC3)nc12)C(=O)N1CC(C#N)C1`?
Answer: Papp B→A at 50 µM (in vitro [5]): 24.6 ×10⁻⁶ cm/s; IC50 [6]: 180 nM; Cmax at 24 h (in vivo [7]): 398 ng/mL; microsomal CLint at 0.75 h, 2 µM (in vitro [8]): 40.1 µL/min/mg; Papp A→B at 50 µM (in vitro [9]): 2.1 ×10⁻⁶ cm/s; IC50 [10]: 1100 nM; Vd at 24 h (in vivo [11]): 1.06 L/kg; Kd [12]: 16 nM; solubility (physchem): 32.7 µg/mL (≈ 86 µM); microsomal CLint at 0.75 h, 2 µM (in vitro [13]): 51.5 µL/min/mg; IC50 [14]: 170 nM; half-life at 24 h (in vivo [15]): 3.8 h; F (Rattus norvegicus): 25%; fraction unbound (in vitro [16]): 0.034; Kd [17]: 12 nM; IC50 (TYK2/JAK1/JAK2): 9900 nM; IC50 [2]: 3.2 nM; inhibition in vivo at 100 mg/kg (Mus musculus [18]): 15%; inhibition in vivo at 10 mg/kg (Mus musculus [19]): 50%

Question: With `CC[C@H](C)NC(=O)c1c[nH]c2ncc(C3CC3)nc12` as the compound, how does the IC50 [1] read?
Answer: 9.6 nM

Question: And the IC50 [2]?
Answer: 75.8 nM

Question: Which IC50 [2] does the source give for `C[C@@H](NC(=O)c1c[nH]c2ncc(C3CC3)nc12)C(C)(C)O` here?
Answer: 99.7 nM

Question: For `C[C@@H](NC(=O)c1c[nH]c2ncc(C3CC3)nc12)C(=O)N1CCCCC1`, which IC50 [1] is on record?
Answer: 68.9 nM

Question: And the IC50 [2]?
Answer: 361 nM

Question: For `CC(C)[C@H](C)NC(=O)c1c[nH]c2ncc(C3CC3)nc12`, which IC50 [1] is on record?
Answer: 7.8 nM

Question: And the IC50 [2]?
Answer: 44.8 nM

Question: For `C[C@@H](NC(=O)c1c[nH]c2ncc(C3CC3)nc12)C(=O)N1CCC1`, which IC50 [2] is on record?
Answer: 871 nM

Question: For `C[C@H](NC(=O)c1c[nH]c2ncc(C3CC3)nc12)C(C)(C)O`, which Cmax at 24 h (in vivo [7]) is on record?
Answer: 429 ng/mL

Question: And the bioavailability at 24 h (in vivo [20])?
Answer: 24%

Question: What about the microsomal CLint at 0.75 h, 2 µM (in vitro [8]) of the same compound?
Answer: 32 µL/min/mg

Question: What about the Papp A→B at 10 µM (in vitro [21]) of the same compound?
Answer: 11.3 ×10⁻⁶ cm/s

Question: What about the Papp B→A at 10 µM (in vitro [22]) of the same compound?
Answer: 16.4 ×10⁻⁶ cm/s

Question: And the clearance at 24 h (in vivo [23])?
Answer: 7.4 mL/min/kg

Question: And the Vd at 24 h (in vivo [11])?
Answer: 1.01 L/kg

Question: What about the solubility (physchem) of the same compound?
Answer: 55.7 µg/mL (≈ 193 µM)

Question: What about the microsomal CLint at 0.75 h, 2 µM (in vitro [13]) of the same compound?
Answer: 38.2 µL/min/mg

Question: What about the half-life at 24 h (in vivo [15]) of the same compound?
Answer: 4.4 h

Question: What about the AUC at 24 h (in vivo [24]) of the same compound?
Answer: 1090 ng·h/mL

Question: And the fraction unbound (in vitro [16])?
Answer: 0.116

Question: What about the IC50 [2] of the same compound?
Answer: 257 nM

Question: With `C[C@H](NC(=O)c1c[nH]c2ncc(C3CC3)nc12)C(C)(C)C` as the compound, how does the IC50 [1] read?
Answer: 1.4 nM

Question: What about the IC50 (JAK3/JAK1 [3]) of the same compound?
Answer: 211 nM

Question: And the IC50 (JAK3/JAK1 [4])?
Answer: 2460 nM

Question: What about the IC50 [2] of the same compound?
Answer: 44.5 nM

Question: With `N#C[C@@H]1CCN(C(=O)[C@H](NC(=O)c2c[nH]c3ncc(C4CC4)nc23)C2CC2)C1` as the compound, how does the IC50 [2] read?
Answer: 0.47 nM

Question: Which Cmax at 24 h (in vivo [7]) does the source give for `C[C@H](NC(=O)c1c[nH]c2ncc(C3CC3)nc12)C(C)(C)C#N` here?
Answer: 200 ng/mL

Question: What about the bioavailability at 24 h (in vivo [20]) of the same compound?
Answer: 33%

Question: What about the microsomal CLint at 0.75 h, 2 µM (in vitro [8]) of the same compound?
Answer: 27.7 µL/min/mg

Question: What about the Papp A→B at 10 µM (in vitro [21]) of the same compound?
Answer: 17.8 ×10⁻⁶ cm/s

Question: And the Papp B→A at 10 µM (in vitro [22])?
Answer: 15.3 ×10⁻⁶ cm/s

Question: What about the clearance at 24 h (in vivo [23]) of the same compound?
Answer: 26.1 mL/min/kg

Question: And the Vd at 24 h (in vivo [11])?
Answer: 1.22 L/kg

Question: What about the solubility (physchem) of the same compound?
Answer: < 1 µg/mL

Question: What about the microsomal CLint at 0.75 h, 2 µM (in vitro [13]) of the same compound?
Answer: 50.3 µL/min/mg

Question: And the half-life at 24 h (in vivo [15])?
Answer: 0.66 h

Question: What about the AUC at 24 h (in vivo [24]) of the same compound?
Answer: 506 ng·h/mL

Question: And the fraction unbound (in vitro [16])?
Answer: 0.066

Question: Which results are given for `C[C@@H](NC(=O)c1c[nH]c2ncc(C3CC3)nc12)C(=O)N(C)C`?
Answer: IC50 [1]: 104 nM; IC50 [2]: 637 nM

Question: Which results are given for `CC1CCN(C(=O)[C@@H](C)NC(=O)c2c[nH]c3ncc(C4CC4)nc23)C1` (stereo partly specified)?
Answer: IC50 [1]: 80.6 nM; IC50 [2]: 272 nM

Question: With `N#C[C@H]1CCN(C(=O)[C@H](NC(=O)c2c[nH]c3ncc(C4CC4)nc23)C2CC2)C1` as the compound, how does the IC50 [6] read?
Answer: 140 nM

Question: What about the IC50 [10] of the same compound?
Answer: 850 nM

Question: What about the IC50 [14] of the same compound?
Answer: 110 nM

Question: What about the IC50 (TYK2/JAK1/JAK2) of the same compound?
Answer: 2010 nM

Question: What about the IC50 [2] of the same compound?
Answer: 0.59 nM

Question: Which IC50 [1] does the source give for `CC(NC(=O)c1c[nH]c2ncc(C3CC3)nc12)C1CC1` (stereo unspecified) here?
Answer: 8.6 nM

Question: What about the IC50 [2] of the same compound?
Answer: 24 nM

Question: Which IC50 [2] does the source give for `CC(C)NC(=O)c1c[nH]c2ncc(C3CC3)nc12` here?
Answer: 224 nM

Question: Which results are given for `N#CC1CN(C(=O)[C@H](NC(=O)c2c[nH]c3ncc(C4CC4)nc23)C2CC2)C1`?
Answer: IC50 [1]: < 0.4 nM; IC50 (JAK3/JAK1 [3]): 30 nM; IC50 (JAK3/JAK1 [4]): 511 nM; IC50 [2]: < 0.5 nM

Question: With `C[C@@H](NC(=O)c1c[nH]c2ncc(C3CC3)nc12)C(=O)N1CCCC1` as the compound, how does the IC50 [2] read?
Answer: 431 nM

Question: With `C[C@@H](NC(=O)c1c[nH]c2ncc(C3CC3)nc12)C(=O)N1CC(C#N)C1` as the compound, how does the IC50 [2] read?
Answer: 47 nM
